Measured values: paper PMC9668304 (2022)

Experiments:
[1] = system: aminoglycoside aptamer (tobramycin-binding aptamer) (DNA, aptamer) GGGACTTGGTTTAGGTAATGAGTCCC; test: three-electrode square-wave voltammetry, 240 Hz; conditions: 137 mM NaCl, 2.7 mM KCl; 1x PBS, ambient temperature; saturable Langmuir-Hill isotherm, reversible; immobilised aptamer
[2] = system: aminoglycoside aptamer (tobramycin-binding aptamer) (DNA, aptamer) GGGACTTGGTTTAGGTAATGAGTCCC; test: square-wave pulsed OECT (aptamer on gate), 70 Hz; conditions: 137 mM NaCl, 2.7 mM KCl; 1x PBS, ambient temperature; saturable Langmuir-Hill isotherm, reversible; immobilised aptamer

## NC[C@H]1O[C@H](O[C@H]2[C@H](O)[C@@H](O[C@H]3O[C@H](CO)[C@@H](O)[C@H](N)[C@H]3O)[C@H](N)C[C@@H]2N)[C@H](N)C[C@@H]1O
[1]
  binding: yes
[2]
  binding: yes
